Results as given in article PMC8156151 (The European Respiratory Journal, 2021).
Like-named read-outs stand apart in the source and are kept apart here.

Legend:
Type in all cases: in vivo, human
[1] = Plasma pharmacokinetics, part 2 (IPF patients); conditions: for Cmin (plasma concentration at 24 h post-dose): BLQ: below limit of quantification (0.5 ng·mL^−1); for half-life / Cmax / concentration at 24 h / AUC(0-inf): human, plasma, inhaled; for concentration at 24 h: read-out: Cmin (plasma concentration at 24 h post-dose)
Protocol: Full plasma PK profiles were conducted on days 1 (first day of dosing) and 14 (last day of dosing). […] Standard noncompartmental methods were applied to derive PK parameters using Phoenix WinNonlin version 6.3 (Certara, Sheffield, UK). […] Drug compartment measurements in BAL alveolar macrophages and fluid were determined as described previously.

[2] = system: YKL-40 (CHI3L1); assay: Plasma biomarker YKL-40; conditions: for YKL-40 (CHI3L1) raw data, Mean (SD) / YKL-40 (CHI3L1) least square means % baseline±SEM: IPF patients
Protocol: (§1) All patients, investigators, sites and study sponsor personnel were blinded to the study group assignments throughout the study. Patients underwent study-specific assessments on days 2, 3, 7, 14 and 15, and a post-study assessment was carried out 26–30 days after the last day of the study period. Assessments included vital signs (supine blood pressure, pulse, oxygen saturation, oral temperature and respiratory rate), spirometry, 12-lead ECG, physical examination, laboratory safety screen (haematology, biochemistry, urinalysis and urinary drugs of abuse screen) and blood sampling for PK measurements. All adverse events and concomitant medications were recorded from the time of the screening visit until the post-study follow-up visit. BAL was performed at day −1 (24 h before the first dose) and at day 14 (2 h after the last dose). The BAL procedure was performed as per international guidelines. Briefly, 240 mL of 0.9% saline at room temperature was instilled in 40 mL aliquots into the right middle lobe and aspirated by suction after each aliquot.
(§2) BAL cells were separated from fluid by centrifugation, and cells were collected, stained with antibodies (supplementary material) and then fixed before analysis using a LSR Fortessa flow cytometer (Becton Dickinson, Franklin Lakes, NJ, USA). Data were analysed using FlowJo software (Tree Star, Ashland, OR, USA). Macrophages were identified as having high side scatter properties and human leukocyte antigen-DR positivity. Gal-3 expression (mean fluorescence intensity) was determined from the macrophage gate (supplementary figures S1 and S2). […] Samples were analysed by magnetic Luminex assay (R&D Systems, Minneapolis, MN, USA) or ELISA.
(§3) For part 2 of the study, placebos were combined from the three dose-specific cohorts into a pooled control group (n=9). For alveolar macrophage Gal-3 expression and the plasma biomarkers, ANCOVA was performed for percentage of baseline ((day 14/day 1)×100). The ANCOVA model included effects for treatment group and baseline (day 1) value. […] An additional analysis including dose as a continuous covariate was also performed. The Pearson correlation coefficient (r) and associated p-value were calculated for percentage of baseline and day 14 values between plasma biomarkers and alveolar macrophage Gal-3 expression. […] The analysis is exploratory and there was no pre-planned adjustment for multiple testing; the study was not powered for this. Alveolar macrophage Gal-3 expression was considered the primary exploratory analysis with the pre-selected biomarkers secondary. A Bonferroni correction for multiple testing of the secondary end-points comparing the 10 mg group with placebo gives a critical value of 0.0063. Data are presented as the difference in least square means with 95% confidence interval and p-value unless otherwise stated. All analyses were performed using SAS version 9.4 (SAS Institute, Cary, NC, USA). […]

[3] = system: Osteopontin; assay: Plasma biomarker osteopontin; conditions: for Osteopontin raw data, Mean (SD) / Osteopontin least square means % baseline±SEM: IPF patients
Protocol: as §1, §2, §3

[4] = system: PDGF-AA; assay: Plasma biomarker PDGF-AA; conditions: for PDGF-AA raw data, Mean (SD) / PDGF-AA least square means % baseline±SEM: IPF patients
Protocol: as §1, §2, §3

[5] = IPF patients, after 14 days of dosing
[6] = 3 mg, IPF patients, Day 1, 3 mg once daily, mean±SD
[7] = 3 mg, IPF patients, Day 14, 3 mg once daily, mean±SD
[8] = 10 mg, IPF patients, Day 1, 10 mg once daily, mean±SD
[9] = 10 mg, IPF patients, Day 14, 10 mg once daily, mean±SD

Cmin (plasma concentration at 24 h post-dose) ([1]; IPF patients, Day 1, 0.3 mg once daily): BLQ | Cmin (plasma concentration at 24 h post-dose) ([1]; IPF patients, Day 14, 0.3 mg once daily): BLQ | accumulation [1, 5]: ~50% | increase in AUC0−inf, 10 mg values [1, 5]: 8 fold | increase in Cmax, 10 mg values [1, 5]: 5 fold | expected accumulation ([1]; from T1/2 of ∼8 h and dosing interval of 24 h): ~14% | half-life ([1]; inhaled or intranasal, overall value, read-out: plasma half-life (T1/2) (converted)): 8 h | Cmax ([1]; 0.3 mg, IPF patients, Day 1, 0.3 mg once daily, mean±SD): 0.55 ± 0.02 ng/mL | Cmax ([1]; 0.3 mg, IPF patients, Day 14, 0.3 mg once daily, mean±SD): 0.86 ± 0.25 ng/mL | concentration at 24 h [1, 6]: 1.06 ± 0.43 ng/mL | concentration at 24 h [1, 7]: 1.48 ± 0.51 ng/mL | AUC(0-inf) [1, 6]: 69 ± 50 ng·h/mL | Cmax [1, 6]: 10.6 ± 11.1 ng/mL | half-life ([1]; 3 mg, IPF patients, Day 1, 3 mg once daily, mean±SD, read-out: T1/2 (converted)): 6.36 ± 2.09 h | AUC(0-inf) [1, 7]: 149 ± 47 ng·h/mL | Cmax [1, 7]: 16.5 ± 8.34 ng/mL | half-life ([1]; 3 mg, IPF patients, Day 14, 3 mg once daily, mean±SD, read-out: T1/2 (converted)): 6.91 ± 1.4 h | concentration at 24 h [1, 8]: 12.9 ± 7.88 ng/mL | concentration at 24 h [1, 9]: 14.7 ± 8.64 ng/mL | AUC(0-inf) [1, 8]: 921 ± 479 ng·h/mL | Cmax [1, 8]: 56.3 ± 19.3 ng/mL | half-life ([1]; 10 mg, IPF patients, Day 1, 10 mg once daily, mean±SD, read-out: T1/2 (converted)): 9.69 ± 1.7 h | AUC(0-inf) [1, 9]: 1150 ± 462 ng·h/mL | Cmax [1, 9]: 82.8 ± 11.8 ng/mL | half-life ([1]; 10 mg, IPF patients, Day 14, 10 mg once daily, mean±SD, read-out: T1/2 (converted)): 8.2 ± 2.26 h
Structure (SMILES): OC[C@H]1O[C@@H](S[C@@H]2O[C@H](CO)[C@H](O)[C@H](n3cc(-c4cccc(F)c4)nn3)[C@H]2O)[C@H](O)[C@@H](n2cc(-c3cccc(F)c3)nn2)[C@H]1O [TD139]
YKL-40 (CHI3L1) difference in least square means % baseline (95% CI) ([2]; 10 mg vs placebo, ANCOVA): −28.9 (−55.9– −1.9) % baseline | YKL-40 (CHI3L1) raw data, Mean (SD) ([2]; Day 14, 0.3 mg): 45140.2 (34041.85) pg/ml | YKL-40 (CHI3L1) raw data, Mean (SD) ([2]; Day 14, 3 mg): 146819.5 (40114.19) pg/ml | YKL-40 (CHI3L1) raw data, Mean (SD) ([2]; Day 14, 10 mg): 79975.5 (38590.77) pg/ml | YKL-40 (CHI3L1) least square means % baseline±SEM ([2]; day 14, 0.3 mg once daily): 84.1±12.5 % baseline | YKL-40 (CHI3L1) least square means % baseline±SEM ([2]; day 14, 3 mg once daily): 50.2±18.6 % baseline | YKL-40 (CHI3L1) least square means % baseline±SEM ([2]; day 14, 10 mg once daily): 51.6±10.4 % baseline | Osteopontin difference in least square means % baseline (95% CI) ([3]; 10 mg vs placebo, ANCOVA): −26.8 (−88.0–34.3) % baseline | Osteopontin raw data, Mean (SD) ([3]; Day 14, 0.3 mg): 37756 (20451.51) pg/ml | Osteopontin raw data, Mean (SD) ([3]; Day 14, 3 mg): 31032.4 (13230.48) pg/ml | Osteopontin raw data, Mean (SD) ([3]; Day 14, 10 mg): 48630.5 (37737.51) pg/ml | Osteopontin least square means % baseline±SEM ([3]; day 14, 0.3 mg once daily): 106.2±23.9 % baseline | Osteopontin least square means % baseline±SEM ([3]; day 14, 3 mg once daily): 84±23.7 % baseline | Osteopontin least square means % baseline±SEM ([3]; day 14, 10 mg once daily): 91.3±23.4 % baseline | PDGF-AA difference in least square means % baseline (95% CI) ([4]; 10 mg vs placebo, ANCOVA): −129.7 (−295.3–35.8) % baseline | PDGF-AA raw data, Mean (SD) ([4]; Day 14, 0.3 mg): 1299.7 (754.57) pg/ml | PDGF-AA raw data, Mean (SD) ([4]; Day 14, 3 mg): 4075.9 (5511.46) pg/ml | PDGF-AA raw data, Mean (SD) ([4]; Day 14, 10 mg): 2556.7 (987.79) pg/ml | PDGF-AA least square means % baseline±SEM ([4]; day 14, 0.3 mg once daily): 61.7±60.6 % baseline | PDGF-AA least square means % baseline±SEM ([4]; day 14, 3 mg once daily): 117.1±62.1 % baseline | PDGF-AA least square means % baseline±SEM ([4]; day 14, 10 mg once daily): 83.6±61.2 % baseline
